Reference: patent US8026254B2, “Therapeutic agents useful for treating pain” (Purdue Pharma, L.P., priority 2002, dated 2011)

Molecular target: μ-opioid receptors (Homo sapiens, UniProt P35372)
Test: μ-opioid receptor radioligand dose-displacement binding assay ([3H]-diprenorphine)
Procedure: μ- and ORL-1-Receptor-Binding-Assay Procedures
Radioligand dose-displacement binding assays for ORL-1 and […] use 0.1 nM [^3H]-nociceptin or 0.2 nM [^3H]-diprenorphine (NEN, Boston, Mass.), respectively, with […] membrane protein/well in a final volume of […] binding buffer (10 mM MgCl2, 1 mM EDTA, 5% DMSO, 50 mM HEPES, pH 7.4). Reactions are carried out in the absence or presence of increasing concentrations of unlabled nociceptin (American Peptide Company, Sunnyvale, Calif.) or naloxone, for ORL-1 and μ, respectively. All reactions are conducted in 96-deep well polypropylene plates for 1-2 h at room temperature. Binding reactions are terminated by rapid filtration onto 96-well Unifilter GF/C filter plates (Packard, Meriden, Conn.) presoaked in 0.5% polyethylenimine using a 96-well tissue harvester (Brandel, Gaithersburg, Md.) followed performing by three filtration washes with 500 μL of ice-cold binding buffer. Filter plates are subsequently dried at 50° C. for 2-3 h. BetaScint scintillation cocktail (Wallac, Turku, Finland) is added (50 μl/well), and plates are counted using a Packard Top-Count for 1 min/well. The data are analyzed using the one-site competition curve fitting functions in GraphPad PRISM v. 3.0 (San Diego, Calif.).

μ-opioid receptors, sequence (P35372 whole entry): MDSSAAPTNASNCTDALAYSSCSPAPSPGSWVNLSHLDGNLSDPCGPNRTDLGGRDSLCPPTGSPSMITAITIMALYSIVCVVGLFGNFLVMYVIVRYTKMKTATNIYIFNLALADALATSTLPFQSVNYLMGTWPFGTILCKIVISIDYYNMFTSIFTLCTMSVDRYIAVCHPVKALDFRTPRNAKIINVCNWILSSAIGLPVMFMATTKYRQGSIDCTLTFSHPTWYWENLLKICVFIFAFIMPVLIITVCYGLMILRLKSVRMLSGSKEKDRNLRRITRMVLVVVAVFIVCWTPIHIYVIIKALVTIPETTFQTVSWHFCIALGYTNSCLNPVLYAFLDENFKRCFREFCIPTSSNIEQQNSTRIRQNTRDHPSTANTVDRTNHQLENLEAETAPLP

Structure (SMILES): CN(C)C(=O)C(CCN1CCC(c2ccccc2)(c2nnn[nH]2)CC1)(c1ccccc1)c1ccccc1 [AFD]
- Ki: 3.2 nM
